ChEMBL document CHEMBL5715954, “Silencing c-Myc translation as a therapeutic strategy through targeting PI3Kδ and CK1ε in hematological malignancies” (Blood, 2017)

Assays:
Set-up in all cases: scale not given: the % may be the effect or the level left
[1] = target: CDK2/Cyclin A1 (Homo sapiens) (UniProt P24941+P78396); assay: Inhibition of human CDK2/Cyclin A1 assessed as enzyme activity at 1 uM using RB Protein as substrate preincubated for 20 mins followed by [gamma-33P]-ATP addition and measured after 120 mins by radiometric Hot-SpotSM Kinase assay relative to control; format: protein-complex assay
[2] = target: T1, Serine/threonine-protein kinase ICK (Homo sapiens) (UniProt Q9UPZ9); assay: Inhibition of human LCK2 assessed as enzyme activity at 1 uM using myelin basic protein as substrate preincubated for 20 mins followed by [gamma-33P]-ATP addition and measured after 120 mins by radiometric Hot-SpotSM Kinase assay relative to control
T1 sequence (whole entry): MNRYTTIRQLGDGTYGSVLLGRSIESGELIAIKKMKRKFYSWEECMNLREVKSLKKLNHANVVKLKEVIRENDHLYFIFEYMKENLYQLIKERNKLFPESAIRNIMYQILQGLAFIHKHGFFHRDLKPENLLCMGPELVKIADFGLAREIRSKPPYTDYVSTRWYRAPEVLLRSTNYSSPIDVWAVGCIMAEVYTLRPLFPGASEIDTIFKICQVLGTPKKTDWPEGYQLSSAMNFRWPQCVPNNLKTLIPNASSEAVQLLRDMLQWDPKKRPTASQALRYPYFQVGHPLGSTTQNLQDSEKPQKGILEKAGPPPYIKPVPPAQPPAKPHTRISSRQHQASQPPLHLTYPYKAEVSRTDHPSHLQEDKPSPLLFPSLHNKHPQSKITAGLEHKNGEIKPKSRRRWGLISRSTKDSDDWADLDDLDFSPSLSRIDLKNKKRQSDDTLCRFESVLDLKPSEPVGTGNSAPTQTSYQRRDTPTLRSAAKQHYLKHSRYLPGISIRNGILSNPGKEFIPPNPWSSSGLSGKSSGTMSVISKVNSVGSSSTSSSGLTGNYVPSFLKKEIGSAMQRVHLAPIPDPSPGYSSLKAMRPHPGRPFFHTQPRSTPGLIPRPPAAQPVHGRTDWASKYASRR

[3] = target: Serine/threonine-protein kinase PAK 6 (Homo sapiens) (UniProt Q9NQU5); assay: Inhibition of human PAK6 assessed as enzyme activity at 1 uM using RRRLSFAEPG as substrate preincubated for 20 mins followed by [gamma-33P]-ATP addition and measured after 120 mins by radiometric Hot-SpotSM Kinase assay relative to control
[4] = target: ALK tyrosine kinase receptor (Homo sapiens) (UniProt Q9UM73); assay: Inhibition of human ALK assessed as enzyme activity at 1 uM using poly[Glu:Tyr] (4:1) as substrate preincubated for 20 mins followed by [gamma-33P]-ATP addition and measured after 120 mins by radiometric Hot-SpotSM Kinase assay relative to control
[5] = target: T2, Serine/threonine-protein kinase Nek1 (Homo sapiens) (UniProt Q96PY6); assay: Inhibition of human NEK1 assessed as enzyme activity at 1 uM using myelin basic protein as substrate preincubated for 20 mins followed by [gamma-33P]-ATP addition and measured after 120 mins by radiometric Hot-SpotSM Kinase assay relative to control
T2 sequence (whole entry): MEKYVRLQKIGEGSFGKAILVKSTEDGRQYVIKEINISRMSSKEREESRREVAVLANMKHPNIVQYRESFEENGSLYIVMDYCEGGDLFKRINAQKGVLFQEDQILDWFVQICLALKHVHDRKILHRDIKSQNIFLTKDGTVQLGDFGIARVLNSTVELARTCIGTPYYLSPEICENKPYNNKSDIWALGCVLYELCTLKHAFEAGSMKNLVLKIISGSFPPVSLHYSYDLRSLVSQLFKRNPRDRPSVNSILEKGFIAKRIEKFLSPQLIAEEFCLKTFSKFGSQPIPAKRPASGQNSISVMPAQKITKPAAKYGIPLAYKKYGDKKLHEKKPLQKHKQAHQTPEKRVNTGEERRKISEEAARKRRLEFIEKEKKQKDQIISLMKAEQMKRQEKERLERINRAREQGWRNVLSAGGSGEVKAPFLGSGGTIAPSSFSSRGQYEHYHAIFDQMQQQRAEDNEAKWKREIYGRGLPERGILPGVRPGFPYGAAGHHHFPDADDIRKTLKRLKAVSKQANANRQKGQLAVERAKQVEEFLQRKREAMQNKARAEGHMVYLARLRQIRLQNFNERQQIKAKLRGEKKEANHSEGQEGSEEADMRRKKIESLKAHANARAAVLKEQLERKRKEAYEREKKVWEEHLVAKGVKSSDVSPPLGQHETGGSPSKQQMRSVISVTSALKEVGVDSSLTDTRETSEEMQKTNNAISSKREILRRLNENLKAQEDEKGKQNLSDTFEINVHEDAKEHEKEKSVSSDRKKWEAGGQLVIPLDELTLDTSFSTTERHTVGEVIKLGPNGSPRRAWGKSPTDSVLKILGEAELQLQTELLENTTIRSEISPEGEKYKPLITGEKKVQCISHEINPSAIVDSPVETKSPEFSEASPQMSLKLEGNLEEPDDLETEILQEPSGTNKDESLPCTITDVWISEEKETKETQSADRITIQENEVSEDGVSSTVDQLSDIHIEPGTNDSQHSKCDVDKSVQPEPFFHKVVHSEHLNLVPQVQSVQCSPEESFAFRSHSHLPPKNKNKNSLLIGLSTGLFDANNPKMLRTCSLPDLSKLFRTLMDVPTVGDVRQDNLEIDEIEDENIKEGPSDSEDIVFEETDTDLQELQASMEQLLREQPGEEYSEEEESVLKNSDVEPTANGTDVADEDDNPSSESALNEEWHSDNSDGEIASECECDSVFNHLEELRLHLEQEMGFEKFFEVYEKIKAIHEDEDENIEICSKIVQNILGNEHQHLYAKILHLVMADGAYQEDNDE

[6] = target: Serine/threonine-protein kinase N3 (Homo sapiens) (UniProt Q6P5Z2); assay: Inhibition of human PKN3 assessed as enzyme activity at 1 uM using KKLNRTLSVA as substrate preincubated for 20 mins followed by [gamma-33P]-ATP addition and measured after 120 mins by radiometric Hot-SpotSM Kinase assay relative to control
[7] = target: Mitogen-activated protein kinase 8 (Homo sapiens) (UniProt P45983); assay: Inhibition of human JNK1-alpha1 assessed as enzyme activity at 1 uM using ATF2 as substrate preincubated for 20 mins followed by [gamma-33P]-ATP addition and measured after 120 mins by radiometric Hot-SpotSM Kinase assay relative to control
[8] = target: G protein-coupled receptor kinase 6 (Homo sapiens) (UniProt P43250); assay: Inhibition of human GRK6 assessed as enzyme activity at 1 uM using casein as substrate preincubated for 20 mins followed by [gamma-33P]-ATP addition and measured after 120 mins by radiometric Hot-SpotSM Kinase assay relative to control
[9] = target: Serine/threonine-protein kinase N1 (Homo sapiens) (UniProt Q16512); assay: Inhibition of human PKN1 assessed as enzyme activity at 1 uM using KKLNRTLSVA as substrate preincubated for 20 mins followed by [gamma-33P]-ATP addition and measured after 120 mins by radiometric Hot-SpotSM Kinase assay relative to control
Sequence of Serine/threonine-protein kinase N1 (Homo sapiens) (Q16512 2-942 limits assumed): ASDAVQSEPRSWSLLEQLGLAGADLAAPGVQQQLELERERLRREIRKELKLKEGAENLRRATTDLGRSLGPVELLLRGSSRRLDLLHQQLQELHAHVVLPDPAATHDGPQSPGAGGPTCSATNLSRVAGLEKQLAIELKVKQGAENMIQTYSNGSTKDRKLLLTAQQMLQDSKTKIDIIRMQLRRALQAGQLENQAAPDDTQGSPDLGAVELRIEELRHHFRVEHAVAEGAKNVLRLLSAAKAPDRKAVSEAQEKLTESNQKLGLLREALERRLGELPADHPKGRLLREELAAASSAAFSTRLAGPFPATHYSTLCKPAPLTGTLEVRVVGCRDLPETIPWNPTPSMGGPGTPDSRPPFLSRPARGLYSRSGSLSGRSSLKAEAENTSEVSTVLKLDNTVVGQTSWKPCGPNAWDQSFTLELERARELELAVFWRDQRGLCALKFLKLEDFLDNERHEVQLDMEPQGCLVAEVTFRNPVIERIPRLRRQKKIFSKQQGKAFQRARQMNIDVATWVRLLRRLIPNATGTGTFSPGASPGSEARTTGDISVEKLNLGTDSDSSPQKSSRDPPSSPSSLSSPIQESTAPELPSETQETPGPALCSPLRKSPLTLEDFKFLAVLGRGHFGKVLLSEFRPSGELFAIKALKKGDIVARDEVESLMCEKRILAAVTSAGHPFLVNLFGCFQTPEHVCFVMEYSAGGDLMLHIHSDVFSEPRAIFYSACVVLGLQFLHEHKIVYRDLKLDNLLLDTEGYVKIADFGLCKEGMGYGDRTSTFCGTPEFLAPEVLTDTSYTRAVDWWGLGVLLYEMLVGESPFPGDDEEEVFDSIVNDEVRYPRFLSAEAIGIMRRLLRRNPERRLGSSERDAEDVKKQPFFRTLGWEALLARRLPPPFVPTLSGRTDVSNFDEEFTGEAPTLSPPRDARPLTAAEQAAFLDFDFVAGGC

Sequence of Serine/threonine-protein kinase N3 (Homo sapiens) (Q6P5Z2 whole entry, looked up): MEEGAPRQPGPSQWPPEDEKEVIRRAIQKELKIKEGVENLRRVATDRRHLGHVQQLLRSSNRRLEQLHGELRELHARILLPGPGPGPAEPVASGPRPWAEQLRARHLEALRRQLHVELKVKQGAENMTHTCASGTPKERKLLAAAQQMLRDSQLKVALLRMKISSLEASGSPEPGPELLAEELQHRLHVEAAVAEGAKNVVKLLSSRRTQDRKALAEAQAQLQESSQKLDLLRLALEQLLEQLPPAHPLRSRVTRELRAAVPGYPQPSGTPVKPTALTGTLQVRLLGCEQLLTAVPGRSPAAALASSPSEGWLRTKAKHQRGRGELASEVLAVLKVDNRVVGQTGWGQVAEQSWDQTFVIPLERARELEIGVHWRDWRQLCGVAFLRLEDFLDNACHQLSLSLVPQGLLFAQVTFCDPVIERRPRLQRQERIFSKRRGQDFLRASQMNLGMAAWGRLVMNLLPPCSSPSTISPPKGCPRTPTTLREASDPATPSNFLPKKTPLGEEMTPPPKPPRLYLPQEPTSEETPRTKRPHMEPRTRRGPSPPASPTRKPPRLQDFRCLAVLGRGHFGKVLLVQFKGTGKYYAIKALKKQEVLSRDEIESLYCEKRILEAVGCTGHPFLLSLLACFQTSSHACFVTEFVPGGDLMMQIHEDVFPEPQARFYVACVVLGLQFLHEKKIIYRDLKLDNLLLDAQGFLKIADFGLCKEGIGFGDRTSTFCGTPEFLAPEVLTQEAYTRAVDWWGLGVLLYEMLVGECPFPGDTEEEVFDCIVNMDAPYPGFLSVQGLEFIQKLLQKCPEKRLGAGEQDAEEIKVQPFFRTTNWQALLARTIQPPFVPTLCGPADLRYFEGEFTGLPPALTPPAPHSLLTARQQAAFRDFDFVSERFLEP
Sequence of Mitogen-activated protein kinase 8 (Homo sapiens) (P45983 whole entry): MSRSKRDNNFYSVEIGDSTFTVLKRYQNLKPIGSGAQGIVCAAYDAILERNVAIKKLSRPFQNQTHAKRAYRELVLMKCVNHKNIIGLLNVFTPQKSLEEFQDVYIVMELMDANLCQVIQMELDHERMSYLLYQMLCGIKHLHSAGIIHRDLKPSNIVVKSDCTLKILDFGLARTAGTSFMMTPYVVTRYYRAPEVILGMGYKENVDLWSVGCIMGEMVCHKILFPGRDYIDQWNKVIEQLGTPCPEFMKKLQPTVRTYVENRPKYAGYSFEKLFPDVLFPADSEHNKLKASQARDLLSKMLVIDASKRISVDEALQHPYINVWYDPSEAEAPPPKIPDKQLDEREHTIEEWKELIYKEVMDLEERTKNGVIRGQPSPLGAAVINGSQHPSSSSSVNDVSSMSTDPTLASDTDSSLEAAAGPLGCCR
Sequence of Serine/threonine-protein kinase PAK 6 (Homo sapiens) (Q9NQU5 whole entry, looked up): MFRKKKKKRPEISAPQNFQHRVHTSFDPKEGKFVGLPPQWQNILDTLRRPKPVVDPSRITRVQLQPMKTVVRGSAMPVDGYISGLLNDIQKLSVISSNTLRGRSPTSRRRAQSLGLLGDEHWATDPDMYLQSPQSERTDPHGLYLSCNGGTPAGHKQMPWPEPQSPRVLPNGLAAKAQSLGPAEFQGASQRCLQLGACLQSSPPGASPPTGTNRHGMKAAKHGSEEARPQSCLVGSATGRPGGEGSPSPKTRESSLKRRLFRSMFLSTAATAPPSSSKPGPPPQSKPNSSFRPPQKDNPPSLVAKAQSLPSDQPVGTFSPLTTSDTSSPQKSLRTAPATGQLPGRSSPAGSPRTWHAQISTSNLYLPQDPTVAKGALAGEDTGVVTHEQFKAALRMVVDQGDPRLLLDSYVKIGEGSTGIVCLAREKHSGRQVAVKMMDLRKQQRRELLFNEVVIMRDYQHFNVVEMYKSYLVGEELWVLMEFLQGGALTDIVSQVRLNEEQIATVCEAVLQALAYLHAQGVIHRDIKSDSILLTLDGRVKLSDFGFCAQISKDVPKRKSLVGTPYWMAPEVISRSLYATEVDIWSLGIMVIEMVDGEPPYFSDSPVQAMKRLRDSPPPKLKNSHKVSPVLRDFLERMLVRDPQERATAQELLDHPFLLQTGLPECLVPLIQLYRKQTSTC
Sequence of G protein-coupled receptor kinase 6 (Homo sapiens) (P43250 whole entry, looked up): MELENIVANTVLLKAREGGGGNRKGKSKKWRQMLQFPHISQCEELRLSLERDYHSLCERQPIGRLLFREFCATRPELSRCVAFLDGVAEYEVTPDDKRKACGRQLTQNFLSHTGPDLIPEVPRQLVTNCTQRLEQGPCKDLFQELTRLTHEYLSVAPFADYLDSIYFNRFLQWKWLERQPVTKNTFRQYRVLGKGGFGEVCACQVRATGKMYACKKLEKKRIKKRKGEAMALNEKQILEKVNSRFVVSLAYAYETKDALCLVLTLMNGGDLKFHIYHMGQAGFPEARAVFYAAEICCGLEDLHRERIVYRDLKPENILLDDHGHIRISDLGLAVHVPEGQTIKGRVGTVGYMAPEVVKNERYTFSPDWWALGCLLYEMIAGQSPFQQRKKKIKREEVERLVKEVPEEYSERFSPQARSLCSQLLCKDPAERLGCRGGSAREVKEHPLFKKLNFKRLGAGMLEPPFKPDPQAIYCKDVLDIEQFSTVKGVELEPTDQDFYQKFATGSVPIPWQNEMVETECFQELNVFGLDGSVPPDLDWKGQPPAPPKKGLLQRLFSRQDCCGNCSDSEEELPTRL

Structure (SMILES)	Activity [1] [%]	Activity [2] [%]	Activity [3] [%]	Activity [4] [%]	Activity [5] [%]	Activity [6] [%]	Activity [7] [%]	Activity [8] [%]	Activity [9] [%]
CC[C@H](Nc1ncnc2[nH]cnc12)c1nc2cccc(F)c2c(=O)n1-c1ccccc1	86.7	100	102	100	93.5	97.8	97.3	99.5	90.5
C[C@H](Nc1ncnc2nc[nH]c12)c1cc2cccc(Cl)c2c(=O)n1-c1ccccc1	79.7	91.6	99.5	96.7	87	101	101	96.9	84
CC(C)Oc1ccc(-c2nn([C@@H](C)c3oc4ccc(F)cc4c(=O)c3-c3cccc(F)c3)c3ncnc(N)c23)cc1F [UMBRALISIB]	78	101	97.2	96.5	105	93.5	98.7	102	92.8
